Measurements reported in patent US6521613B2, “Lactam compounds for penetration enhancement” (Allergan, Inc., priority 2001, dated 2003).

Tested on: rabbit cornea
Test: Penetration enhancement testing: rate of diffusion of drug between chambers separated by rabbit cornea
Format: in vitro ADME
Conditions: test drugs prednisolone, guanethidine, flurbiprofen, compound used as penetration enhancer
Method: Permeation efficiencies are determined by measuring the rate of diffusion of drug between posterior and anterior chambers separated by rabbit cornea. Suitable test drugs include prednisolone, guanethidine, and flurbiprofen. Compounds II and V, described in Examples 2 and 4 above, are tested penetration enhancers. Water, acetone, ethanol, and GBR (glutathione-buffered Ringer's solution) are convenient vehicles used alone or in combination together with the test drugs and the proposed penetration enhancers. The relative rates of diffusion can be determined indirectly by measuring pH versus time in the respective chambers, or by HPLC.

Compound	penetration or permeation of test drugs relative to similar compositions without the present compounds
CCOCCOCCOCCN1CCCCCC1=O [Compound II, N-triethoxyethylether Caprolactam]	enhanced penetration or permeation
O=C1CCCCCN1CCOCCOCCO [Compound V, N-triethyleneglycol Caprolactam]	enhanced penetration or permeation
